ChEMBL document CHEMBL1201862, “PubChem BioAssay data set” (2004)
Each block holds one compound with its values, some of them ahead of it. Active and inactive are the calls of the source.

What was measured:
[1] = target: Intestinal-type alkaline phosphatase (Homo sapiens, UniProt P09923); experiment: inhibition of human intestinal alkaline phosphatase – biochemical, dose response (AID 488876); assay type: functional
[2] = target: Intestinal-type alkaline phosphatase (Mus musculus, UniProt P24822); experiment: PubChem AID 488785; assay type: functional
[3] = target: T1, Alkaline phosphatase, tissue-nonspecific isozyme (Homo sapiens, UniProt P05186); experiment: TNAP enzyme inhibition by screening hits, dose response, selectivity assay for mouse IAP inhibitor project, biochemical, human TNAP, uHTS hits (AID 488906); assay type: functional
T1 sequence (P05186 whole entry): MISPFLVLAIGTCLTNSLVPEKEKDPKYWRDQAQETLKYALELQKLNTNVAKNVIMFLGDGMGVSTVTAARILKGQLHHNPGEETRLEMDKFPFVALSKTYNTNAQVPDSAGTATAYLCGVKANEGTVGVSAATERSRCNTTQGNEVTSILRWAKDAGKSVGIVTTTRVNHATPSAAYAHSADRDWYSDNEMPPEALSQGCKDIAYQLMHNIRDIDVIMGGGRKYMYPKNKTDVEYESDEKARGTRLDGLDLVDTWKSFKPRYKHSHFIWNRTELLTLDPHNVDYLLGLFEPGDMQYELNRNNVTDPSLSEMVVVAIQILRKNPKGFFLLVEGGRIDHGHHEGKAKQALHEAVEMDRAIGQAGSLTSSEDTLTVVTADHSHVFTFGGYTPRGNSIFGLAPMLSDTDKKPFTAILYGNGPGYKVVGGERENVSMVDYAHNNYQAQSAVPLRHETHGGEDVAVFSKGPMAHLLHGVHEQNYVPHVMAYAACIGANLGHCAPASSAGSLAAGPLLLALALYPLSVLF

[4] = system: Jurkat; experiment: SAR Analysis of small molecule inhibitors of […] specific antigen receptor-induced NF-kB activation in a Jurkat cell line using a luminescence assay - Set 3. [Related pubchem assays (depositor defined):AID435022, AID435025, AID465]; assay type: functional, cell-based; settings: Homo sapiens
[5] = system: HEK293; experiment: HEK293T cell viability loss, resazurin readout – resazurin fluorescence, cytotoxicity control for NF-kB activator project, SAR follow-up (AID 493251); assay type: functional, cell-based; settings: Homo sapiens
[6] = system: HEK293; experiment: SAR Analysis of small molecule inhibitors of B-cell specific antigen receptor-induced NF-kB activation in a HEK-293T cell line using a luminescence assay - Set 2. [Related pubchem assays (depositor defined):AID435022, AID435025, AID489021]; assay type: functional, cell-based; settings: Homo sapiens
[7] = target: G-protein coupled receptor 55 (Homo sapiens, UniProt Q9Y2T6); experiment: blockers of GPR55 signalling, imaged – imaging, image-based, counter-screen for GPR35 antagonist project, SAR follow-up (AID 2397); assay type: functional
[8] = system: Streptococcus sp. 'group A'; experiment: Streptococcus pyogenes SK(-)GAS viability under kanamycin – luminescence, BacTiterGlo, confirmation, counter-screen for streptokinase expression inhibitor project, dose response (AID 1900); assay type: functional, organism-based
[9] = target: T2, Probable nicotinate-nucleotide adenylyltransferase (Staphylococcus aureus (strain N315), UniProt P65502); assay type: functional, Staphylococcus aureus subsp. aureus N315; settings: read-out: IC50_Mean;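 as to IC50 Mean: confirmatory dose-response retesting of NadD inhibitor hits first found in an ultra-high-throughput screen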
[10] = target: ORF 73 (Human herpesvirus 8, UniProt O40947); experiment: KSHV LANA DNA-binding disruption – biochemical, fluorescence polarization, cherry-picked samples, dose response (AID 504725); set-up: species or system Human gammaherpesvirus 8;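 also: fluorescence polarization of a labeled DNA duplex reporting LANA DNA binding; potency is for inhibitors that block LANA binding to the DNA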
[11] = target: T3, Apoptotic protease-activating factor 1 (Homo sapiens, UniProt O14727); experiment: activation of Apaf-1 mediated apoptosis – fluorescent, uHTS hits, dose response (AID 588554); assay type: functional
T3 sequence (O14727 whole entry): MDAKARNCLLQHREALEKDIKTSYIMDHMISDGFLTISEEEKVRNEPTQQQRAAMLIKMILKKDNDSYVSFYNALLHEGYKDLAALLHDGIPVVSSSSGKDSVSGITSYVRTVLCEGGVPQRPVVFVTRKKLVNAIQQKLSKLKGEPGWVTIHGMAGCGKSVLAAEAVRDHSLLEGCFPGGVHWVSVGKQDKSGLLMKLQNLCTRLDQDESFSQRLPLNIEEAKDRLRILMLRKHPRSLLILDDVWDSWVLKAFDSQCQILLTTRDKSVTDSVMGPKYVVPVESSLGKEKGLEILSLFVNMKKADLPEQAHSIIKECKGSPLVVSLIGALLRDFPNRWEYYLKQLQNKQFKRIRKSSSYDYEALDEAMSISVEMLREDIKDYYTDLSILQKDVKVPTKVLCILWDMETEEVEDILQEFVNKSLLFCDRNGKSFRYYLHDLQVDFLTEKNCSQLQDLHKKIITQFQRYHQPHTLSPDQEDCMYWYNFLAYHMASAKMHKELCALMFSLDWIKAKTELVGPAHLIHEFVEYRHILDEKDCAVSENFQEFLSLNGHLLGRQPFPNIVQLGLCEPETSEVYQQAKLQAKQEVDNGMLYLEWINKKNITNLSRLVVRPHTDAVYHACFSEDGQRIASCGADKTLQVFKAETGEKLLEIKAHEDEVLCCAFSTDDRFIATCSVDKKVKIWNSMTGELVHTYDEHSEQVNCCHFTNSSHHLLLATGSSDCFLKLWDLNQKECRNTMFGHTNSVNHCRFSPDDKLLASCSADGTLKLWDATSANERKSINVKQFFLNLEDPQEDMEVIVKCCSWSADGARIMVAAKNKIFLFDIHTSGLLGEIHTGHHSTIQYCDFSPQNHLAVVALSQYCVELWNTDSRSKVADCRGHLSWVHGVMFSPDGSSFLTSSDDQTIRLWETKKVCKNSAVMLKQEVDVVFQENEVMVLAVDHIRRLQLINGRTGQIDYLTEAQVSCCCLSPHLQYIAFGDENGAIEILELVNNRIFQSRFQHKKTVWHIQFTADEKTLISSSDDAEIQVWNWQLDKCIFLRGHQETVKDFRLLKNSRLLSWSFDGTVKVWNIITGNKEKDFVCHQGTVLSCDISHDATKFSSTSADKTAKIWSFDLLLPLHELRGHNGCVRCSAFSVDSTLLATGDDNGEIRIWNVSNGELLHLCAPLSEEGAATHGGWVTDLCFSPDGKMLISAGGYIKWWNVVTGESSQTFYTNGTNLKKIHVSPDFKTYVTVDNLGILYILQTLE

[12] = target: 72 kDa type IV collagenase (Homo sapiens, UniProt P08253); experiment: Dose Response validation of uHTS RPN11 inhibitor hits using a MMP-2 Fluorescence assay.; assay type: functional
[13] = target: 26S proteasome non-ATPase regulatory subunit 14 (Homo sapiens, UniProt O00487); experiment: inhibition of proteasome subunit RPN11 – biochemical, fluorescence polarization, uHTS hits, confirmation (AID 602368); assay type: functional
[14] = system: Streptococcus; experiment: GAS UMAA2166 growth inhibition – luminescence, BacTiterGlo, counter-screen for streptokinase expression inhibitor project, dose response (AID 1915); assay type: functional, organism-based;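 also: potency for reduction of bacterial viability or growth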
[15] = target: T2, Probable nicotinate-nucleotide adenylyltransferase; assay type: functional, Staphylococcus aureus subsp. aureus N315
[16] = target: Prothrombin (Bos taurus, UniProt P00735); experiment: thrombin protease inhibitors – biochemical, fluorescence polarization, uHTS hits, dose response (AID 602369); assay type: functional

Chain of ORF 73 (O40947 whole entry): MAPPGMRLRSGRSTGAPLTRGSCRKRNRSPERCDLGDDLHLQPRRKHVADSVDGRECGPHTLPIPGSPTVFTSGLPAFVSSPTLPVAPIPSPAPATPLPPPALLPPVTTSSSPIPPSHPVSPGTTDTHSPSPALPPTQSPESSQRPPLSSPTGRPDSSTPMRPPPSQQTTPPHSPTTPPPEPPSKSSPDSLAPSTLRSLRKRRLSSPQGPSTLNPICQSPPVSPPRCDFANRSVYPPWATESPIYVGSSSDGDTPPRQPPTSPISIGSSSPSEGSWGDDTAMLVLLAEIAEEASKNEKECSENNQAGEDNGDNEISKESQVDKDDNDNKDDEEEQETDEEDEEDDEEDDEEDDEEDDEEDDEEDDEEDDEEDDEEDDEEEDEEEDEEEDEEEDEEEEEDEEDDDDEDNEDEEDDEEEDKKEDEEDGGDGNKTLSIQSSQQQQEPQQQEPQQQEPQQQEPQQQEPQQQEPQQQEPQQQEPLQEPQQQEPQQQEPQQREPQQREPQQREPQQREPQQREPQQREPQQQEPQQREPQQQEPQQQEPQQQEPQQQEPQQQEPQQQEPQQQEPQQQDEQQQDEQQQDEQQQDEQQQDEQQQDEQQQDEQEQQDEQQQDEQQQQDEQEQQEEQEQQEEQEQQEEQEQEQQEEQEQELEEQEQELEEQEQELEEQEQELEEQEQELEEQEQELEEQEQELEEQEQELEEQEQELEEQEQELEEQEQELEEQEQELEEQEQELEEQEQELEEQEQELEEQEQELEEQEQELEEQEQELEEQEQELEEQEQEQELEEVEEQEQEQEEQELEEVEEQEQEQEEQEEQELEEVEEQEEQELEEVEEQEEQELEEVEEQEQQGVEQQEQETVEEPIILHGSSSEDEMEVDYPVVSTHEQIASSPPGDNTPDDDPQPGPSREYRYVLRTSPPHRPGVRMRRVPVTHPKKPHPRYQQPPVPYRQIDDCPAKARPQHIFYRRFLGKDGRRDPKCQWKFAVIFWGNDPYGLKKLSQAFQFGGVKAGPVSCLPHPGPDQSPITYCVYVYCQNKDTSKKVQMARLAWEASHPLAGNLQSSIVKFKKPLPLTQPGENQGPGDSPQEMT
Chain of G-protein coupled receptor 55 (Q9Y2T6 whole entry): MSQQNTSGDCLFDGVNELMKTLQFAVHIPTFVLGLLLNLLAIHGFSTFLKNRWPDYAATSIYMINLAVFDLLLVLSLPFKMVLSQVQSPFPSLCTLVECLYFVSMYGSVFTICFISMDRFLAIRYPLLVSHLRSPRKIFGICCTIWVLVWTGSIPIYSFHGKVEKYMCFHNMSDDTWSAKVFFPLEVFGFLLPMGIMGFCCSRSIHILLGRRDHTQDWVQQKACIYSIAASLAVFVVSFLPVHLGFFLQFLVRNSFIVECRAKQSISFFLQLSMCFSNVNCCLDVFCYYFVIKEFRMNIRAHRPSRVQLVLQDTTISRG
Chain of 26S proteasome non-ATPase regulatory subunit 14 (O00487 whole entry): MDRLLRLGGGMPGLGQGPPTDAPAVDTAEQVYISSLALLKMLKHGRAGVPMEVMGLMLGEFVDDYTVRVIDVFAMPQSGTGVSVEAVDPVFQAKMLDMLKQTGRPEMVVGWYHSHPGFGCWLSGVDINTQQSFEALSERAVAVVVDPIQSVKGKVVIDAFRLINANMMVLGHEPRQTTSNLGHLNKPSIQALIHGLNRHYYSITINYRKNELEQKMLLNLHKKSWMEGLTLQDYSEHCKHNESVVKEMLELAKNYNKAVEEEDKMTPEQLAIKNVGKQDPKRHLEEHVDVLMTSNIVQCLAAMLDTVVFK
Chain of Intestinal-type alkaline phosphatase (Homo sapiens, UniProt P09923) (P09923 whole entry): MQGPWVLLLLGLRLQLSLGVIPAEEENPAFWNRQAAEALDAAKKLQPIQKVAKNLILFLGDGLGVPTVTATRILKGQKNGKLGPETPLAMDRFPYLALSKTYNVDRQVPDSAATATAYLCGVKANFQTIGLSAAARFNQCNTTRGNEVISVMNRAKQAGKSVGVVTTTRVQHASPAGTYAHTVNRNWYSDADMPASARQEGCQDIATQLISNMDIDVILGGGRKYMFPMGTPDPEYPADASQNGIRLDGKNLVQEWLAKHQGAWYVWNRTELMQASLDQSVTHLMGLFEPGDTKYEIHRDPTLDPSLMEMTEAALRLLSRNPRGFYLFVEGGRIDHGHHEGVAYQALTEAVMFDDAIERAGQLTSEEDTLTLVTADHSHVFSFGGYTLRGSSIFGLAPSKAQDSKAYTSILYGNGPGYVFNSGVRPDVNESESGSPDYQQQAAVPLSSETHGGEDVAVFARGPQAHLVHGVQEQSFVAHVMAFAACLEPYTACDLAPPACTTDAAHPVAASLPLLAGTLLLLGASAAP
Chain of 72 kDa type IV collagenase (P08253 whole entry): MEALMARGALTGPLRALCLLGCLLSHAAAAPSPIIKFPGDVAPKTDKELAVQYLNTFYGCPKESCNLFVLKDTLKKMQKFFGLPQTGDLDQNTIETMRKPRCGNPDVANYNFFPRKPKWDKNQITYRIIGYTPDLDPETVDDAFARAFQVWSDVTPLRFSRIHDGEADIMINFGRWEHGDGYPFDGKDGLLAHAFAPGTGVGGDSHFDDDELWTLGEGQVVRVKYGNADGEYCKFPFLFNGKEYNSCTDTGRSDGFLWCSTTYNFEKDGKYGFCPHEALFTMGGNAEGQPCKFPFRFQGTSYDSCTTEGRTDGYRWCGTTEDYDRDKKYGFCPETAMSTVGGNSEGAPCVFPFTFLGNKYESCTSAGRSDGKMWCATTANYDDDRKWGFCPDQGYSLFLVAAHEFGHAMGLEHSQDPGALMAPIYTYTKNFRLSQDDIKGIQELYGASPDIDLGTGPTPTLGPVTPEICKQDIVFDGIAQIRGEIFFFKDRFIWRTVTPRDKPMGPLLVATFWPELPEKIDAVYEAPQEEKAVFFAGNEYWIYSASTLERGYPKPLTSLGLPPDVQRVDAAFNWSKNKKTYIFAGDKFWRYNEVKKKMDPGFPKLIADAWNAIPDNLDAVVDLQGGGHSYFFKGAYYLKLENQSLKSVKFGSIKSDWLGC
Chain of Intestinal-type alkaline phosphatase (Mus musculus, UniProt P24822) (P24822 whole entry): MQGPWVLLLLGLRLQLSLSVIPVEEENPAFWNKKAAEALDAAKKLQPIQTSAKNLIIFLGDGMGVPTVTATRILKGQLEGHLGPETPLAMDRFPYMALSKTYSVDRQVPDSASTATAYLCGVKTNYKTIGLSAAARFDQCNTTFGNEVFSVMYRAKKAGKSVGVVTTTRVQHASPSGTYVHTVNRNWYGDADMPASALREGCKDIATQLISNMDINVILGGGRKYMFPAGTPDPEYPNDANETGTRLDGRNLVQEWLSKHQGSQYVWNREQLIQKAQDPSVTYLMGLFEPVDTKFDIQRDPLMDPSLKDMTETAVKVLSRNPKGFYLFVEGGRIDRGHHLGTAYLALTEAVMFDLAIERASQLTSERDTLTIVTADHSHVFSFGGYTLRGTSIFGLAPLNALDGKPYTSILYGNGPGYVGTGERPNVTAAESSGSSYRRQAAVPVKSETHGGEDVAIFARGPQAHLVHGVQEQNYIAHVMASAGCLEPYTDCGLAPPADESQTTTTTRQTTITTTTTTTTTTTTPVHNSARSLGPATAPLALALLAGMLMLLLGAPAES

IC50 [1]: > 100 µM (inactive)
IC50 [2]: 6.39 µM (active)
IC50 [3]: > 100 µM (inactive)
SMILES: CC(C)(C)c1ccc(O)c(/N=C/c2cc3c(cc2[N+](=O)[O-])OCO3)c1

SMILES: CCCCNC(=O)CSCc1nc(-c2ccc(OCC)cc2)oc1C
IC50 [4]: > 80 µM (inactive)
IC50 [5]: 75.3 µM (inactive)
IC50 [6]: 38.8 µM (inactive)

IC50 [7]: > 32 µM (inactive)
SMILES: Cc1ccccc1OCCC(=O)NCCc1ccc(S(N)(=O)=O)cc1

SMILES: C=CC1=C(C(=O)O)N2C(=O)[C@@H](NC(=O)/C(=N/OCC(=O)O)c3csc(N)n3)[C@H]2SC1
EC50 [8]: < 0.06 µM (active)
IC50 [9]: 4.25 µM (active)
AC50 [10]: 34.8 µM (active)
EC50 [11]: 9.93 µM (active)
IC50 [12]: 0.0764 µM (active)
IC50 [13]: 1.04 µM (active)
EC50 [14]: < 0.06 µM (active)
IC50 [15]: 0.5 µM (active)
IC50 [16]: 68.6 µM (active)
